Key:
PI3K alpha = PI3K alpha (Homo sapiens (Human), UniProt P42336); test: Enzymatic PI3K alpha isoform inhibition (lipid kinase activity, Kinase-Glo luminescence); type: biochemical; settings: Enzymatic assay
Summary of the method: (§1)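 ATP-depletion format: 10 nM PI3K with 5 μg/mL phosphatidylinositol and 2 μM ATP, run to ~50% ATP consumption, then Kinase-Glo added and remaining ATP read by luminescence after 5 min. IC50 from 4-parameter logistic fit, typically over 8 concentrations 10–0.003 μM.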

PI3K delta = PI3K delta (Homo sapiens (Human), UniProt O00329); test: Enzymatic PI3K delta isoform inhibition (lipid kinase activity, Kinase-Glo luminescence); type: biochemical; settings: Enzymatic assay
Summary of the method: as §1

PI3K alpha, sequence (P42336 other isoform, or with tags, fused parts or gaps): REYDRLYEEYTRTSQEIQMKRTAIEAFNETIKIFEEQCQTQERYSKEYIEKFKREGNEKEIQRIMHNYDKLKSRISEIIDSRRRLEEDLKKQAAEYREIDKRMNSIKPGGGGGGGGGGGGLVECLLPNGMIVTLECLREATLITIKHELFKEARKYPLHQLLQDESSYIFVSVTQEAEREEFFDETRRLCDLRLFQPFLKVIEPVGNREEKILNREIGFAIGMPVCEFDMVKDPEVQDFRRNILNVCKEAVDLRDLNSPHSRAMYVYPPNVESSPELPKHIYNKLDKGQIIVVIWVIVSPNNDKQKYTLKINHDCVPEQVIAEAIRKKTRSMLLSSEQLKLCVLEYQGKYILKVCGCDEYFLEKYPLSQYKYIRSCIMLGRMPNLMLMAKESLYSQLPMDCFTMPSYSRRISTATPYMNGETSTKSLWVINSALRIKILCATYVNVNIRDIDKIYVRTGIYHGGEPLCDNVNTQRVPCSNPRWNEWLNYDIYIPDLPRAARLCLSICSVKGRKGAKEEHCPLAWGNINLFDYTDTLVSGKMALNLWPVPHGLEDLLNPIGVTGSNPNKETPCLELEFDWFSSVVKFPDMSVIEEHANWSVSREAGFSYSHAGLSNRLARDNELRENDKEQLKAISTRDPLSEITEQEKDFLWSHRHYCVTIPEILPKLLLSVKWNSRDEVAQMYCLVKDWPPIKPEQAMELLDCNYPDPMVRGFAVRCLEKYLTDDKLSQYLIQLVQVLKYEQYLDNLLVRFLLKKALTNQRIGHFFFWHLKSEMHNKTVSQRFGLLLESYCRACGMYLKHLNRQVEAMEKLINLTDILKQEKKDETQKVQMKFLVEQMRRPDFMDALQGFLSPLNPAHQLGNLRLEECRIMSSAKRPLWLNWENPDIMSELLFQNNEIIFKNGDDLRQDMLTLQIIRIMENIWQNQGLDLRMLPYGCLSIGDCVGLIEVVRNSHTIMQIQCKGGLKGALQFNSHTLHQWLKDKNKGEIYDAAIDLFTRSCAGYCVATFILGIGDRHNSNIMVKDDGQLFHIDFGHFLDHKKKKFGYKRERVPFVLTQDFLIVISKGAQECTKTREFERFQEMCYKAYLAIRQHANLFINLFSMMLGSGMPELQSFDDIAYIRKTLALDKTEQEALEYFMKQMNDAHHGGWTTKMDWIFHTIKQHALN
PI3K delta, sequence (O00329 other isoform, or with tags, fused parts or gaps linker GGGGGG): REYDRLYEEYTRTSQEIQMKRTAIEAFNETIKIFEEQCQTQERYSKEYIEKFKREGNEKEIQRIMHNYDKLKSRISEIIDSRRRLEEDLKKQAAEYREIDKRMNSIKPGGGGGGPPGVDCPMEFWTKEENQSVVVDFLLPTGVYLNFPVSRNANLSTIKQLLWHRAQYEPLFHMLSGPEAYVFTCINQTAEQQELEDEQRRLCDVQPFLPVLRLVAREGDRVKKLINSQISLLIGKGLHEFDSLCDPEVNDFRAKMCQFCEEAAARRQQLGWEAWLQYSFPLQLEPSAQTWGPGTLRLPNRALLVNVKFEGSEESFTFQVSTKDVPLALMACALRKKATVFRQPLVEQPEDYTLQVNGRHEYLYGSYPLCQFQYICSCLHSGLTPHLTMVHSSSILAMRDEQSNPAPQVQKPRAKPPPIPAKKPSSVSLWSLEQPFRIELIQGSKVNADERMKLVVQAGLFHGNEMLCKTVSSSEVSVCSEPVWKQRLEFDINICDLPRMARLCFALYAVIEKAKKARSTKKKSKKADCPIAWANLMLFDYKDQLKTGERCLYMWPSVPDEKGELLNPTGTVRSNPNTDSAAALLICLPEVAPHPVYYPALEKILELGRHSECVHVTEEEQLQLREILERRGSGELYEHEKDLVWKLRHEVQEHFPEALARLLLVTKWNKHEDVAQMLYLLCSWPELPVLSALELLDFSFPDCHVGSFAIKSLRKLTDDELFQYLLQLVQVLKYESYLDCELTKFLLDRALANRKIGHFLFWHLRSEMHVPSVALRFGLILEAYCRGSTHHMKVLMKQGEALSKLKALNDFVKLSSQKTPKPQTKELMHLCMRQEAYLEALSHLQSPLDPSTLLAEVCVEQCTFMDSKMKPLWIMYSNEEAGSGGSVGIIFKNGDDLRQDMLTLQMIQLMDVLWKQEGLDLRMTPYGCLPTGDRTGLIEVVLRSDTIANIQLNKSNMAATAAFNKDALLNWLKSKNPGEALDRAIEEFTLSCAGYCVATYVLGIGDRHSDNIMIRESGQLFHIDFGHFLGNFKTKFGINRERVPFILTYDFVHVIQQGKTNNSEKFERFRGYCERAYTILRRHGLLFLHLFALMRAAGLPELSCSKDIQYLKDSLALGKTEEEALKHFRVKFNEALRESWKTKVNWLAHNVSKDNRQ

SMILES | IC50 (PI3K alpha) | IC50 (PI3K delta)
COc1ncc(N2CCOc3ccc(O[C@H]4CCN(C(=O)CCS(C)(=O)=O)C4)cc32)cc1F [Example B112, 1-{(S)-3-[4-(5-Fluoro-6-methoxy-pyridin-3-yl)-3,4-dihydro-2H-benzo[1,4]oxazin-6-yloxy]-pyrrolidin-1-yl}-3-methanesulfonyl-propan-1-one] | 0.38 µM | 0.026 µM
Cc1cc(N2CCOc3ccc(O[C@H]4CCN(c5ncccn5)C4)cc32)cnc1S(C)(=O)=O [N, 4-(6-Methanesulfonyl-5-methyl-pyridin-3-yl)-6-((S)-1-pyrimidin-2-yl-pyrrolidin-3-yloxy)-3,4-dihydro-2H-benzo[1,4]oxazine] | 0.838 µM | 0.012 µM
CC[S+]([O-])c1ccc(N2CCOc3ccc(O[C@H]4CCN(C(=O)C5CCOCC5)C4)cc32)cn1 (stereo partly drawn) [Example B7, {(S)-3-[4-(6-Ethanesulfinyl-pyridin-3-yl)-3,4-dihydro-2H-benzo[1,4]oxazin-6-yloxy]-pyrrolidin-1-yl}-(tetrahydro-pyran-4-yl)-methanone] | 3.54 µM | 0.114 µM
COc1ncc(N2CCOc3ccc(O[C@H]4CCN(C(=O)c5ccc(=O)[nH]c5)C4)cc32)cc1C#N [Example D20, 2-Methoxy-5-{6-[(S)-1-(6-oxo-1,6-dihydro-pyridine-3-carbonyl)-pyrrolidin-3-yloxy]-2,3-dihydro-benzo[1,4]oxazin-4-yl}-nicotinonitrile] | 0.206 µM | 0.007 µM
COc1ncc(N2CCOc3ccc(O[C@H]4CCN(C(=O)[C@H]5CCN(C(C)=O)C5)C4)cc32)cc1C#N [J, 5-{6-[(S)-1-((S)-1-Acetyl-pyrrolidine-3-carbonyl)-pyrrolidin-3-yloxy]-2,3-dihydro-benzo[1,4]-oxazin-4-yl}-2-methoxy-nicotinonitrile] | 0.998 µM | 0.065 µM
COc1ncc(N2CCOc3ccc(O[C@H]4CCN(C(=O)C5CCS(=O)(=O)CC5)C4)cc32)cc1C(F)(F)F [Example B14, (1,1-Dioxo-hexahydro-1lambda*6*-thiopyran-4-yl)-{(S)-3-[4-(6-methoxy-5-trifluoromethyl-pyridin-3-yl)-3,4-dihydro-2H-benzo[1,4]oxazin-6-yloxy]-pyrrolidin-1-yl}-methanone] | 0.244 µM | 0.006 µM
COc1ncc(N2CCOc3ccc(O[C@H]4CCN(C(=O)c5cncnc5)C4)cc32)cc1F [Example B104, {(S)-3-[4-(5-Fluoro-6-methoxy-pyridin-3-yl)-3,4-dihydro-2H-benzo[1,4]oxazin-6-yloxy]-pyrrolidin-1-yl}-pyrimidin-5-yl-methanone] | 1.37 µM | 0.162 µM
COc1ncc(N2CCOc3ccc(O[C@H]4CCN(C(=O)C5CNC(=O)C5)C4)cc32)cc1C#N (stereo partly drawn) [Example C19, 2-Methoxy-5-{6-[(S)-1-(5-oxo-pyrrolidine-3-carbonyl)-pyrrolidin-3-yloxy]-2,3-dihydro-benzo[1,4]oxazin-4-yl}-nicotinonitrile] | 0.488 µM | 0.021 µM
Cc1cc(N2CCOc3ccc(O[C@H]4CCN(C(=O)C5CC5)C4)cc32)cnc1S(C)(=O)=O [Example B80, Cyclopropyl-{(S)-3-[4-(6-methanesulfonyl-5-methyl-pyridin-3-yl)-3,4-dihydro-2H-benzo[1,4]oxazin-6-yloxy]-pyrrolidin-1-yl}-methanone] | 0.295 µM | 0.004 µM
COC(=O)N1CC[C@H](Oc2ccc3c(c2)N(c2cnc(OC)c(C#N)c2)CCO3)C1 [Example D11, (S)-3-[4-(5-Cyano-6-methoxy-pyridin-3-yl)-3,4-dihydro-2H-benzo[1,4]oxazin-6-yloxy]-pyrrolidine-1-carboxylic acid methyl ester] | 0.442 µM | 0.019 µM
COc1ncc(N2CCOc3ccc(O[C@H]4CCN(C(=O)C5CCNCC5)C4)cc32)cc1C#N [Example D38, 2-Methoxy-5-{6-[(S)-1-(piperidine-4-carbonyl)-pyrrolidin-3-yloxy]-2,3-dihydro-benzo[1,4]oxazin-4-yl}-nicotinonitrile] | 0.516 µM | 0.018 µM
COc1ncc(N2CCOc3ccc(O[C@H]4CCN(C(=O)c5cncs5)C4)cc32)cc1C#N [Example C14, 2-Methoxy-5-{6-[(S)-1-(thiazole-5-carbonyl)-pyrrolidin-3-yloxy]-2,3-dihydro-benzo[1,4]oxazin-4-yl}-nicotinonitrile] | 0.25 µM | 0.005 µM
Cc1cc(N2CCOc3ccc(O[C@H]4CCN(C(=O)C5CCCCC5)C4)cc32)cnc1S(C)(=O)=O [Example B49, Cyclohexyl-{(S)-3-[4-(6-methanesulfonyl-5-methyl-pyridin-3-yl)-3,4-dihydro-2H-benzo[1,4]oxazin-6-yloxy]-pyrrolidin-1-yl}-methanone] | 0.45 µM | 0.007 µM
CCC(=O)N1CC[C@H](Oc2ccc3c(c2)N(c2ccc(OC)c(S(=O)(=O)NOC)c2)CCO3)C1 [Example A31, 2,N-Dimethoxy-5-[6-((S)-1-propionyl-pyrrolidin-3-yloxy)-2,3-dihydro-benzo[1,4]oxazin-4-yl]-benzenesulfonamide] | 6.02 µM | 0.088 µM
COCCC(=O)N1CC[C@H](Oc2ccc3c(c2)N(c2cnc(OC)c(OC)c2)CCO3)C1 [Example B46, 1-{(S)-3-[4-(5,6-Dimethoxy-pyridin-3-yl)-3,4-dihydro-2H-benzo[1,4]oxazin-6-yloxy]-pyrrolidin-1-yl}-3-methoxy-propan-1-one] | 2.08 µM | 0.227 µM

Continued, values first:

IC50 (PI3K alpha) | IC50 (PI3K delta) | SMILES
0.047 µM | 0.006 µM | CN(C)S(=O)(=O)c1cncc(N2CCOc3ccc(O[C@H]4CCN(C(=O)C5CCOCC5)C4)cc32)c1 [Example A2, 5-{6-[(S)-1-(Tetrahydro-pyran-4-carbonyl)-pyrrolidin-3-yloxy]-2,3-dihydro-benzo[1,4]oxazin-4-yl}-pyridine-3-sulfonic acid dimethylamide]
0.933 µM | 0.013 µM | Cc1cc(N2CCOc3ccc(O[C@H]4CCN(C(=O)[C@H]5CC[C@H](O)CC5)C4)cc32)cnc1S(C)(=O)=O [Example B50, (4-Hydroxy-cyclohexyl)-{(S)-3-[4-(6-methanesulfonyl-5-methyl-pyridin-3-yl)-3,4-dihydro-2H-benzo[1,4]oxazin-6-yloxy]-pyrrolidin-1-yl}-methanone]
2.65 µM | 0.031 µM | COc1ncc(N2CCOc3ccc(O[C@H]4CCN(C(=O)C5CCOC5)C4)cc32)cc1C (stereo partly drawn) [Example B15, {(S)-3-[4-(6-Methoxy-5-methyl-pyridin-3-yl)-3,4-dihydro-2H-benzo[1,4]oxazin-6-yloxy]-pyrrolidin-1-yl}-(tetrahydro-furan-3-yl)-methanone]
0.148 µM | 0.003 µM | COc1ncc(N2CCOc3ccc(O[C@H]4CCN(C(=O)CS(C)(=O)=O)C4)cc32)cc1Cl [Example B110, 1-{(S)-3-[4-(5-Chloro-6-methoxy-pyridin-3-yl)-3,4-dihydro-2H-benzo[1,4]oxazin-6-yloxy]-pyrrolidin-1-yl}-2-methanesulfonyl-ethanone]
0.366 µM | 0.004 µM | Cc1cc(N2CCOc3ccc(O[C@H]4CCN(C(=O)C5CCOCC5)C4)cc32)cnc1Cl [Example B58, {(S)-3-[4-(6-Chloro-5-methyl-pyridin-3-yl)-3,4-dihydro-2H-benzo[1,4]oxazin-6-yloxy]-pyrrolidin-1-yl}-(tetrahydro-pyran-4-yl)-methanone]
0.476 µM | 0.0215 µM | CCC(=O)N1CC[C@H](Oc2ccc3c(c2)N(c2cnc(S(C)(=O)=O)c(C)c2)CCO3)C1 [Example B97, 1-{(S)-3-[4-(6-Methanesulfonyl-5-methyl-pyridin-3-yl)-3,4-dihydro-2H-benzo[1,4]oxazin-6-yloxy]-pyrrolidin-1-yl}-propan-1-one]
0.954 µM | 0.072 µM | COc1ncc(N2CCOc3ccc(O[C@H]4CCN(CC5CCN(C)CC5)C4)cc32)cc1C#N [P, 2-Methoxy-5-{6-[(S)-1-(1-methyl-piperidin-4-ylmethyl)-pyrrolidin-3-yloxy]-2,3-dihydro-benzo[1,4]oxazin-4-yl}-nicotinonitrile]
0.795 µM | 0.046 µM | Cc1cc(N2CCOc3ccc(O[C@H]4CCN(C(=O)c5ccccc5)C4)cc32)cnc1S(C)(=O)=O [Example B34, {(S)-3-[4-(6-Methanesulfonyl-5-methyl-pyridin-3-yl)-3,4-dihydro-2H-benzo[1,4]oxazin-6-yloxy]-pyrrolidin-1-yl}-phenyl-methanone]
0.514 µM | 0.057 µM | COc1cc(N2CCOc3ccc(O[C@H]4CCN(C(=O)C5CCCOC5)C4)cc32)cnc1OC (stereo partly drawn) [Example B43, {(S)-3-[4-(5,6-Dimethoxy-pyridin-3-yl)-3,4-dihydro-2H-benzo[1,4]oxazin-6-yloxy]-pyrrolidin-1-yl}-(tetrahydro-pyran-3-yl)-methanone]
2.06 µM | 0.032 µM | Cc1cc(N2CCOc3ccc(O[C@H]4CCN(C(=O)C5CCOCC5)C4)cc32)cnc1OC(F)F [Example B72, {(S)-3-[4-(6-Difluoromethoxy-5-methyl-pyridin-3-yl)-3,4-dihydro-2H-benzo[1,4]oxazin-6-yloxy]-pyrrolidin-1-yl}-(tetrahydro-pyran-4-yl)-methanone]
0.525 µM | 0.004 µM | COc1ncc(N2CCOc3ccc(O[C@H]4CCN(C(=O)C5CCS(=O)(=O)CC5)C4)cc32)cc1C [Example B93, (1,1-Dioxo-hexahydro-1lambda*6*-thiopyran-4-yl)-{(S)-3-[4-(6-methoxy-5-methyl-pyridin-3-yl)-3,4-dihydro-2H-benzo[1,4]oxazin-6-yloxy]-pyrrolidin-1-yl}-methanone]
0.762 µM | 0.02 µM | COc1ncc(N2CCOc3ccc(O[C@H]4CCN(C(=O)C5CCS(=O)(=O)C5)C4)cc32)cc1Cl (stereo partly drawn) [Example B105, {(S)-3-[4-(5-Chloro-6-methoxy-pyridin-3-yl)-3,4-dihydro-2H-benzo[1,4]oxazin-6-yloxy]-pyrrolidin-1-yl}-(1,1-dioxo-tetrahydro-1lambda*6*-thiophen-3-yl)-methanone]

From patent US9539260B2, “Dihydro-benzo-oxazine and dihydro-pyrido-oxazine derivatives” (Novartis AG, priority 2012, dated 2017)
